From PubChem BioAssay AID1259408 (Genetic Toxicology Data Bank (GENE-TOX), 2018)
Calls of active or inactive are those of the source. How the calls were made is not given here.

System: GENE-TOX genotoxicity assays, various organisms and cells
Assay: GENE-TOX mutagenicity studies
Details: for call: Assay Type: In vivo carcinogenicity studies, Assay Code: CCG+
[1] = Species/Cell Type: Bacillus subtilis (H17 vs M45), Assay Type: Rec-assay, spot test, DNA effects (bacterial DNA repair), Assay Code: REW+, Evaluation Type: Evaluation A (Pre-1980)
[2] = Species/Cell Type: Drosophila melanogaster, Assay Type: Sex-linked recessive lethal gene mutation, Assay Code: SRLT, Evaluation Type: Evaluation A (Pre-1980)
[3] = Species/Cell Type: Mammalian polychromatic erythrocytes, Assay Type: Micronucleus test, chromosome aberrations, Assay Code: MNTT, Evaluation Type: Evaluation A (Pre-1980)
[4] = Species/Cell Type: Nonhuman, Evaluation Type: Evaluation A (Pre-1980)
[5] = Species/Cell Type: Salmonella typhimurium (one or more of the five standard strains: TA98, TA100, TA1535, TA1537, and TA1538), Assay Type: Histidine reverse gene mutation, Ames assay, Assay Code: SAL+, Evaluation Type: Evaluation A (Pre-1980)
[6] = Species/Cell Type: Salmonella typhimurium (one or more of the five standard strains: TA98, TA100, TA1535, TA1537, and TA1538), Assay Type: Histidine reverse gene mutation, Ames assay, Assay Code: SAL-, Evaluation Type: Evaluation A (Pre-1980)
[7] = Species/Cell Type: Salmonella typhimurium (one or more of the five standard strains: TA98, TA100, TA1535, TA1537, and TA1538), Assay Type: Histidine reverse gene mutation, Ames assay, Assay Code: SAL+*, Activation: With metabolic activation, Evaluation Type: Evaluation A (Pre-1980)
[8] = Species/Cell Type: Nonhuman, Assay Type: Sister-chromatid exchange (SCE) in vivo, Assay Code: SC3+, Evaluation Type: Evaluation B (Post-1980)

For NC(=O)/C(=C\c1ccc([N+](=O)[O-])o1)c1ccco1, the mutagenic call [1] was “active; positive”, the mutagenic call (Species/Cell Type: Chinese hamster lung (V79) cells, Assay Type: Forward gene mutation at the HPRT or ouabain locus, Assay Code: V79+, Evaluation Type: Evaluation A (Pre-1980)) was “active; positive” and the mutagenic call [2] was “no conclusion”. The mutagenic call (Species/Cell Type: Escherichia coli WP2 UVRA, Assay Type: Tryptophan reverse gene mutation, Assay Code: WPU+D, Dose Response: With dose response, Evaluation Type: Evaluation A (Pre-1980)) was “active; positive”, the mutagenic call (Species/Cell Type: Human diploid fibroblasts, Assay Type: Unscheduled DNA synthesis (UDS) in vitro, DNA effects, Assay Code: UDHT, Evaluation Type: Evaluation A (Pre-1980)) was “no conclusion” and the mutagenic call (Species/Cell Type: Human, Assay Type: Sister-chromatid exchange (SCE) in vitro, Assay Code: SC1+D, Dose Response: With dose response, Evaluation Type: Evaluation B (Post-1980)) was “active; positive”. For the same compound, the mutagenic call [3] was “no conclusion”, the mutagenic call (Species/Cell Type: Mouse lymphoma (L5178Y) cells, Assay Type: Forward gene mutation at the thymidine kinase (TK) locus, chromosome aberrations, Assay Code: L51+, Evaluation Type: Evaluation A (Pre-1980)) was “active; positive” and the mutagenic call (Species/Cell Type: Mouse, Sex: Male, Assay Type: Sperm morphology, Assay Code: SPI-, Evaluation Type: Evaluation A (Pre-1980)) was “inactive; negative”. The mutagenic call (Species/Cell Type: Neurospora crassa, Assay Type: Forward gene mutation, Assay Code: NEF+, Evaluation Type: Evaluation A (Pre-1980)) was “active; positive”, the mutagenic call (Species/Cell Type: Neurospora crassa, Assay Type: Reverse gene mutation, Assay Code: NER+, Evaluation Type: Evaluation A (Pre-1980)) was “active; positive” and the call [4] was “active; positive”. The mutagenic call (Species/Cell Type: Nonhuman, Assay Type: Sister-chromatid exchange (SCE) in vitro, Assay Code: SC2+D, Dose Response: With dose response, Evaluation Type: Evaluation B (Post-1980)) was “active; positive”, the mutagenic call (Species/Cell Type: Rodents, Sex: Male, Assay Type: Dominant lethal test, Assay Code: DLT-, Evaluation Type: Evaluation A (Pre-1980)) was “inactive; negative” and the mutagenic call (Species/Cell Type: Saccharomyces cerevisiae, Assay Type: Mitotic recombination or gene conversion, Assay Code: YEC+, Evaluation Type: Evaluation A (Pre-1980)) was “active; positive”. The mutagenic call (Species/Cell Type: Saccharomyces cerevisiae, Assay Type: Mitotic recombination or gene conversion, Assay Code: YEH+, Evaluation Type: Evaluation A (Pre-1980)) was “active; positive”, the mutagenic call (Species/Cell Type: Saccharomyces cerevisiae, Assay Type: Reverse gene mutation, Assay Code: YER+, Evaluation Type: Evaluation A (Pre-1980)) was “active; positive” and the mutagenic call [5] was “active; positive”. For the same compound, the mutagenic call (Species/Cell Type: Syrian hamster embryo (SHE) cells, Assay Type: Cell transformation, clonal assay, Assay Code: CTC+, Evaluation Type: Evaluation A (Pre-1980)) was “active; positive”.

For C1=CC2OC2c2cc3ccc4ccccc4c3cc21 (stereo unspecified), the mutagenic call [2] was “no conclusion” and the mutagenic call (Species/Cell Type: Mouse prostate cells, Assay Type: Cell transformation, Assay Code: CTM+, Evaluation Type: Evaluation A (Pre-1980)) was “active; positive”.

CC[N+](=O)[O-] was tested, and the mutagenic call [3] was “no conclusion”.

C=CN(C)N=O was tested, and the mutagenic call (Species/Cell Type: Drosophila melanogaster, Assay Type: Sex-linked recessive lethal gene mutation, Assay Code: SRL+, Evaluation Type: Evaluation A (Pre-1980)) was “active; positive” and the call [4] was “active; positive”.

In the case of CCOP(=S)(OCC)Oc1ccc(S(C)=O)cc1 (stereo unspecified), the mutagenic call (Species/Cell Type: Bacillus subtilis (H17 vs M45), Assay Type: Rec-assay, spot test, DNA effects (bacterial DNA repair), Assay Code: REWT, Evaluation Type: Evaluation A (Pre-1980)) is reported as “no conclusion”, the mutagenic call (Species/Cell Type: Drosophila melanogaster, Assay Type: Sex-linked recessive lethal gene mutation, Assay Code: SRL-, Evaluation Type: Evaluation A (Pre-1980)) is reported as “inactive; negative” and the mutagenic call (Species/Cell Type: Escherichia coli WP2 UVRA, Assay Type: Tryptophan reverse gene mutation, Assay Code: WPU-*, Activation: With metabolic activation, Evaluation Type: Evaluation A (Pre-1980)) is reported as “inactive; negative”. For the same compound, the mutagenic call (Species/Cell Type: Escherichia coli polA (W3119 vs P3478), Assay Type: Rec-assay, DNA effects (bacterial DNA repair), Assay Code: RE1T, Evaluation Type: Evaluation A (Pre-1980)) was “no conclusion”, the mutagenic call (Species/Cell Type: Human diploid fibroblasts, Assay Type: Unscheduled DNA synthesis (UDS) in vitro, DNA effects, Assay Code: UDH-, Evaluation Type: Evaluation A (Pre-1980)) was “inactive; negative” and the mutagenic call (Species/Cell Type: Nonhuman, Assay Type: Sister-chromatid exchange (SCE) in vitro, Assay Code: SC2T, Evaluation Type: Evaluation B (Post-1980)) was “no conclusion”. The mutagenic call (Species/Cell Type: Saccharomyces cerevisiae, Assay Type: Mitotic recombination or gene conversion, Assay Code: YEH-, Evaluation Type: Evaluation A (Pre-1980)) was “inactive; negative” and the mutagenic call [6] was “inactive; negative”.

In the case of Cc1ccc2cc3c(ccc4cc(C)ccc43)cc2c1, the mutagenic call [2] is reported as “no conclusion”.

For C=C(Cl)CSC(=S)N(CC)CC, the call [4] was “active; positive” and the mutagenic call [7] was “active; positive”.

With NNc1cc2c(nn1)CCN(C(=O)c1ccccc1)C2 the mutagenic call [8] was “active; positive”.

With O=c1c(=O)c2c3ccccc3cc3ccc4cccc1c4c32 the mutagenic call (Species/Cell Type: Chinese hamster lung (V79) cells, Assay Type: Forward gene mutation at the HPRT or ouabain locus, Assay Code: V79-, Evaluation Type: Evaluation A (Pre-1980)) was “inactive; negative” and the mutagenic call (Species/Cell Type: Salmonella typhimurium (one or more of the five standard strains: TA98, TA100, TA1535, TA1537, and TA1538), Assay Type: Histidine reverse gene mutation, Ames assay, Assay Code: SALT, Evaluation Type: Evaluation A (Pre-1980)) was “no conclusion”.

For CC/C(=C(/CC)c1ccc(OP(=O)(O)O)cc1)c1ccc(OP(=O)(O)O)cc1, the mutagenic call [3] was “no conclusion”, the mutagenic call (Species/Cell Type: Neurospora crassa, Assay Type: Aneuploidy, chromosome aberrations, Assay Code: NEN-, Evaluation Type: Evaluation A (Pre-1980)) was “inactive; negative” and the mutagenic call (Species/Cell Type: Nonhuman, Assay Type: Sister-chromatid exchange (SCE) in vivo, Assay Code: SC3-, Evaluation Type: Evaluation B (Post-1980)) was “inactive; negative”. For the same compound, the mutagenic call (Species/Cell Type: Rodents, Sex: Male, Assay Type: Dominant lethal test, Assay Code: DLT+, Evaluation Type: Evaluation A (Pre-1980)) was “active; positive”.

CN=C1C=CC(=C(c2ccc(N(C)C)cc2)c2ccc(N(C)C)cc2)C=C1 was tested, and the mutagenic call [1] was “active; positive” and the mutagenic call (Species/Cell Type: Bacillus subtilis (H17 vs M45T), Assay Type: Rec-assay, spot test, DNA effects (bacterial DNA repair), Assay Code: REXT, Evaluation Type: Evaluation A (Pre-1980)) was “no conclusion”.

In the case of c1ccc2c(c1)Cc1ccccc1-2, the mutagenic call (Species/Cell Type: Nonhuman, Assay Type: Sister-chromatid exchange (SCE) in vivo, Assay Code: SC3T, Evaluation Type: Evaluation B (Post-1980)) is reported as “no conclusion” and the mutagenic call [6] is reported as “inactive; negative”.

CC[C@@H](CO)NCCN[C@@H](CC)CO was tested, and the mutagenic call (Species/Cell Type: Mammalian polychromatic erythrocytes, Assay Type: Micronucleus test, chromosome aberrations, Assay Code: MNT+U, Dose Response: Unconfirmed positive response, Evaluation Type: Evaluation B (Post-1980)) was “active; positive”.

COc1ccc2c3c(cccc13)C(=O)c1ccccc1-2 was tested, and the mutagenic call [7] was “active; positive”.

CC1CN(N=O)C(=O)NC1=O (stereo unspecified) was tested, and the mutagenic call [5] was “active; positive”.

With O=C(CCNNC(=O)c1ccncc1)NCc1ccccc1 the mutagenic call [8] was “active; positive” and the mutagenic call [5] was “active; positive”.

For C=C1C(=O)O[C@@H]2C[C@@H](C)[C@@H]3C[C@H](O)O[C@@H](O)[C@@]3(C)C[C@H]12, the mutagenic call [5] was “active; positive”.

For O=S(=O)(O)c1cccc(Nc2nc(Nc3ccc(/C=C/c4ccc(Nc5nc(Nc6cccc(S(=O)(=O)O)c6)nc(N(CCO)CCO)n5)cc4S(=O)(=O)O)c(S(=O)(=O)O)c3)nc(N(CCO)CCO)n2)c1, the mutagenic call (Species/Cell Type: Nonhuman, Assay Type: Sister-chromatid exchange (SCE) in vitro, Assay Code: SC2T, Evaluation Type: Evaluation A (Pre-1980)) was “no conclusion”.

For [Cl][Al]([Cl])[Cl], the mutagenic call (Species/Cell Type: Bacillus subtilis (H17 vs M45), Assay Type: Rec-assay, spot test, DNA effects (bacterial DNA repair), Assay Code: REW-, Evaluation Type: Evaluation A (Pre-1980)) was “inactive; negative”, the mutagenic call (Species/Cell Type: Nonhuman bone marrow, Assay Type: Chromosome aberrations, in vivo, Assay Code: CY#+, Evaluation Type: Evaluation A (Pre-1980)) was “active; positive” and the mutagenic call (Species/Cell Type: Syrian hamster embryo (SA7/SHE) cells, Assay Type: Cell transformation, viral enhanced, Assay Code: CT7-, Evaluation Type: Evaluation A (Pre-1980)) was “inactive; negative”.
